Laboratory results: US20100035756A1, “TRIAZOLOPHYRIDINE DERIVATIVES AS HERBICIDES” (SYNGENTA LIMITED, priority 2006, published 2010)

Legend:
[1] = tested on: Monocotyledonous and dicotyledonous test plants; assay: Herbicidal action prior to emergence of the plants (pre-emergence action), Example B1; type: in vivo; details: preemergence application, 250 g/ha, evaluated after 4 weeks, 100%=total damage, 0%=no damage
Protocol: (§1) Monocotyledonous and dicotyledonous test plants are sown in seed trays in standard soil. Immediately after sowing, the test compounds are applied by spraying in the form of an aqueous suspension (prepared from a wettable powder (Example F3, b) according to WO 97/34485) or in the form of an emulsion (prepared from an emulsifiable concentrate (Example F1, c) according to WO 97/34485) in a concentration of 250 g/ha. The test plants are then grown in a greenhouse under optimum conditions. After a 4-week test period, the test is evaluated (100%=total damage to plant; 0%=no damage to plant; NC not evaluated).

[2] = tested on: Monocotyledonous and dicotyledonous test plants; assay: Herbicidal action after emergence of the plants (post-emergence herbicidal action), Example B2; type: in vivo; details: postemergent application, 125 g/ha, 2- to 3-leaf stage, evaluated after 2-3 weeks, 100%=total damage
Protocol: as §1, with “When the test plants are at the 2- to 3-leaf stage,” for “Immediately after sowing,”, “125” for “250”, “grown on” for “grown”, “2- to 3-week” for “4-week”, “plant).” for “plant; NC not evaluated).”

Structure (SMILES) | herbicidal damage, ABUTH [1] [%] | herbicidal damage, AMARE [1] [%] | herbicidal damage, BRAPL [1] [%] | herbicidal damage, DIGSA [1] [%] | herbicidal damage, ECHCG [1] [%] | herbicidal damage, SETFA [1] [%] | herbicidal damage, STEME [1] [%] | herbicidal damage, VERPE [1] [%] | herbicidal damage, ABUTH [2] [%] | herbicidal damage, AMARE [2] [%] | herbicidal damage, CHEAL [2] [%] | herbicidal damage, DIGSA [2] [%] | herbicidal damage, SETFA [2] [%] | herbicidal damage, SINAR [2] [%] | herbicidal damage, VERPE [2] [%] | herbicidal damage, XANST [2] [%]
O=C1CCCC(O)=C1C(=O)c1ccc(C(F)(F)F)n2c(Br)nnc12 [Compound 3.3] | 100 | 100 | 0 | 0 | 0 | 0 | 70 | 30 | 70 | 70 | 80 | 70 | 30 | 70 | 80 | 80
COCc1nnc2c(C(=O)C3=C(O)C(C)(C)C(=O)C(C)(C)C3=O)ccc(C(F)(F)F)n12 [Compound 5.5] |  | 60 | 20 | 10 | 60 | 20 | 70 | 90 | 80 | 90 | 80 | 10 | 50 | 70 | 80 | 70
O=C(C1=C(O)C2CCC(C2)C1=O)c1ccc(C(F)(F)F)n2c(Cl)nnc12 (stereo not drawn) [Compound 1.2] | 100 | 100 | 100 | 100 | 100 | 90 |  | 70 | 90 | 80 | 80 | 90 | 90 | 70 | 70 | 80
Cc1nc2c(C(=O)C3=C(O)C(C)(C)C(=O)C(C)(C)C3=O)ccc(C(F)(F)F)n2n1 [13.3] | 100 | 90 | 80 | 80 | 30 | 70 | 100 | 100 | 80 | 70 | 50 | 60 | 70 | 80 | 70 | 80
CCOc1nnc2c(C(=O)C3=C(O)C4CCC(C4)C3=O)ccc(C(F)(F)F)n12 (stereo not drawn) [Compound 1.211] | 30 | 100 | 100 | 70 | 70 | 30 | 80 | 90 | 70 | 100 | 80 | 70 | 80 | 80 | 80 | 80
O=C(C1=C(O)C2CCC(C2)C1=O)c1ccc(C(F)(F)F)n2nc(Cl)nc12 (stereo not drawn) [2.2] | 50 | 70 | 50 | 50 | 70 | 10 | 0 | 60 | 40 | 80 | 80 | 90 | 80 | 70 | 70 | 60
CC(C)c1nc2c(C(=O)C3=C(O)C4CCC(C4)C3=O)ccc(C(F)(F)F)n2n1 (stereo not drawn) [2.7] | 30 | 20 | 0 | 0 | 10 | 0 | 20 | 50 | 70 |  | 70 | 20 | 20 | 60 | 10 | 70
CCSc1nnc2c(C(=O)C3=C(O)C4CCC(C4)C3=O)ccc(C(F)(F)F)n12 (stereo not drawn) [Compound 1.212] | 70 | 100 | 60 | 70 | 50 | 80 | 70 | 0 | 80 | 80 | 80 | 80 | 80 | 80 | 80 | 80
COCc1nnc2c(C(=O)C3=C(O)C4CCC(C4)C3=O)ccc(C(F)(F)F)n12 (stereo not drawn) [Compound 1.16] | 100 | 100 | 70 | 80 | 100 | 80 | 100 | 50 | 80 | 90 | 80 | 70 | 70 | 80 | 80 | 80
